Among the data in ChEMBL document CHEMBL5247584, “Design, synthesis and evaluation of fused hybrids with acetylcholinesterase inhibiting and Nrf2 activating functions for Alzheimer's disease” (Eur J Med Chem, 2022) are IC50, Activity and Km values, retold here.

Calls of active or inactive are those of the source. The rule behind the calls is not given here.

In one series the target is Cholinesterase (Equus caballus, UniProt P81908). Description: Inhibition of equine serum BuChE using ATC and BTC iodide as substrate preincubated for 5 mins followed by substrate addition and measured after 2 mins by DTNB reagent based assay.
For series [1], the target named is Acetylcholinesterase (Electrophorus electricus, UniProt O42275). Description: Inhibition of electric eel AChE using ATC and BTC iodide as substrate preincubated for 5 mins followed by substrate addition and measured after 2 mins by DTNB reagent based assay.
Series [2] has as its system HepG2-ARE-C8. Put plainly: Cytotoxicity against human HepG2-ARE-C8 cells assessed as reduction in cell viability at 5 and 20 uM measured for 24 hrs by MTT assay. It is filed as functional, cell-based.
For series [3], the system named is Mus musculus. Put plainly: Antialzheimer activity against Abeta1-42-induced cognitive impairment ICR mouse model assessed as confuse escape tracks at 10 mg/kg, IG administered for 3 to 14 days and measured after 9 to 14 days in presence of donepezil by Morris water maze test. In kind it is functional, organism-based. Particulars: time 9-14 day.
The subject of series [4] is Mus musculus. Put plainly: Antialzheimer activity against Abeta1-42-induced cognitive impairment ICR mouse model assessed as increase in distance to reach target at 10 mg/kg, IG administered for 3 to 14 days and measured after 9 to 14 days in presence of donepezil by Morris water maze test. In kind it is functional, organism-based. Particulars: time 9-14 day.
In series [5] the test system is Mus musculus. Put plainly: Antialzheimer activity against Abeta1-42-induced cognitive impairment ICR mouse model assessed as increase in arrival time at 10 mg/kg, IG administered for 3 to 14 days and measured after 9 to 14 days in presence of donepezil by Morris water maze test. In kind it is functional, organism-based. Particulars: time 9-14 day.
Series [6] has as its system Mus musculus. Put plainly: Antialzheimer activity against Abeta1-42-induced cognitive impairment ICR mouse model assessed as increase in escape latency at 10 mg/kg, IG administered for 3 to 14 days and measured after 9 to 14 days in presence of donepezil by Morris water maze test. It is filed as functional, organism-based. Particulars: time 9-14 day.
The test system of series [7] is Mus musculus. Put plainly: Cognitive enhancing effect in amyloid beta (1 to 42)-induced ICR mouse model assessed as increase in ACh level at 20 mg/kg […] in presence of donepezil by ELISA. It is filed as functional, organism-based.
Series [8] has as its target Acetylcholinesterase (Homo sapiens, UniProt P22303). Put plainly: Inhibition of human AChE using ATC and BTC iodide as substrate preincubated for 5 mins followed by substrate addition and measured after 2 mins by DTNB reagent based assay.
Series [9] relates to HepG2-ARE-C8. Put plainly: Activation of Nrf2-ARE pathway in human HepG2-ARE-C8 cells at 20 uM measured for 24 hrs by ARE-luciferase assay. It is filed as cell-based. Particulars: filed as activator.
Compound in series [10]: Cc1ccc(-c2noc(-c3cccc(OCC4CCN(Cc5cccc(F)c5)CC4)c3)n2)cn1
Description: Non-competitive inhibition of human AChE assessed as decrease in substrate Vmax with constant Km by Lineweaver-Burk plot analysis.

Sequence of Acetylcholinesterase (Electrophorus electricus, UniProt O42275) (O42275 whole entry): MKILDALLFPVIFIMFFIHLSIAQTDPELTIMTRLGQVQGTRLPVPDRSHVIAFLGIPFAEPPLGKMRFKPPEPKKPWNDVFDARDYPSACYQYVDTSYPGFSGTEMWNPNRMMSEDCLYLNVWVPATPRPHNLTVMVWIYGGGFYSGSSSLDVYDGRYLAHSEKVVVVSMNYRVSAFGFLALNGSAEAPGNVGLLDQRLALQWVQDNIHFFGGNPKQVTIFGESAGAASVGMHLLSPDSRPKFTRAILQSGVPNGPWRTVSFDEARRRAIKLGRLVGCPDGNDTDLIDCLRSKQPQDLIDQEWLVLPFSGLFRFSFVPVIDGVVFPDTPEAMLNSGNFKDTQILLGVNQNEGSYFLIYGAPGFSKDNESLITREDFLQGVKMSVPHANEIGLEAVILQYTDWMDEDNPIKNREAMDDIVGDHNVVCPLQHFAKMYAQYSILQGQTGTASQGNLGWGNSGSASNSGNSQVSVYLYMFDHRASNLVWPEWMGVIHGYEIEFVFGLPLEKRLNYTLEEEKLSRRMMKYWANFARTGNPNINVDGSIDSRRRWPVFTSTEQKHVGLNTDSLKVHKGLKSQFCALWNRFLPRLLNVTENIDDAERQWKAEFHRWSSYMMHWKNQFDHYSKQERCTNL
Sequence of Cholinesterase (P81908 whole entry): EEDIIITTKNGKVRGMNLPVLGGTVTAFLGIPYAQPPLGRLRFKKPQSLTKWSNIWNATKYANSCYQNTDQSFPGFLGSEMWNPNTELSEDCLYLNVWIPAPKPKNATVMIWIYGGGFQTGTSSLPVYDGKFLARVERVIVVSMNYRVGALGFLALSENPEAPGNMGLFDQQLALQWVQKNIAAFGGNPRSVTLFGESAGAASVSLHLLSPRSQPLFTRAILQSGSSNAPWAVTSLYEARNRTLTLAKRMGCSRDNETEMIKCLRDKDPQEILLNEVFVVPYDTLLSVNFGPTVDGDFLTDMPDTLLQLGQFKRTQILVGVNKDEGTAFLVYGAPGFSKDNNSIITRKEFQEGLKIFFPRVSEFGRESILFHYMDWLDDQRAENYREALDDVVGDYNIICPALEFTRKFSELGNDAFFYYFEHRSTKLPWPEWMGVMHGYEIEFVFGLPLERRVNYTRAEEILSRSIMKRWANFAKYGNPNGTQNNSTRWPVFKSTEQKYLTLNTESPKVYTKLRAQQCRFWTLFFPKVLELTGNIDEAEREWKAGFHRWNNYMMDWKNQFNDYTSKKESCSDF

Regarding `Cc1ccc(-c2noc(-c3cccc(OCC4CCN(Cc5cccc(Cl)c5)CC4)c3)n2)cn1`, the IC50 was more than 100 µM against Cholinesterase and 2.29 µM at Acetylcholinesterase [1]. Moreover, the result with HepG2-ARE-C8 [2] was inactive.
As for `Cc1ccc(-c2noc(-c3cccc(OCC4CCN(Cc5ccco5)CC4)c3)n2)cn1`, the half-maximal inhibitory concentration (IC50) was more than 100 µM at Cholinesterase and 2.53 µM against Acetylcholinesterase [1]. Further, the outcome in the series with HepG2-ARE-C8 [2] was inactive.
With `Cc1ccc(-c2noc(-c3cccc(OCC4CCN(C(=O)c5ccccc5)CC4)c3)n2)cn1`, the values for the IC50 against Cholinesterase and at Acetylcholinesterase [1] were more than 100 µM and 59.4 µM, respectively. For the same molecule, the outcome in the series with HepG2-ARE-C8 [2] was inactive.
With `Cc1ccc(-c2noc(-c3cccc(OCC4CCN(Cc5ccc(Cl)o5)CC4)c3)n2)cn1`, the IC50 is more than 100 µM on Cholinesterase and 2 µM at Acetylcholinesterase [1]. Besides, the result in the series on HepG2-ARE-C8 [2] was inactive.
Regarding `Cc1ccc(-c2noc(-c3cccc(OCC4CCCN(Cc5ccccc5)C4)c3)n2)cn1` (configuration not stated), the concentration for half-maximal inhibition (IC50) at Cholinesterase is 2.78 µM; against Acetylcholinesterase [1] it was 6.46 µM. Besides, the outcome in the series with HepG2-ARE-C8 [2] was inactive.
Consider `Cc1ccc(-c2noc(-c3cccc(OCC4CCN(Cc5ccccn5)CC4)c3)n2)cn1`, for which the half-maximal inhibitory concentration (IC50) on Cholinesterase came to 5.03 µM; on Acetylcholinesterase [1], 1.92 µM. In the series on HepG2-ARE-C8 [2], the outcome was inactive.
As to `Cc1ccc(-c2noc(-c3cccc(OCC4CCCN(C(=O)c5ccc(F)cc5)C4)c3)n2)cn1` (configuration not stated), the half-inhibitory concentration (IC50) on Cholinesterase was determined as 5.78 µM; at Acetylcholinesterase [1], 4.37 µM. Further, in the series with HepG2-ARE-C8 [2], the result was inactive.
Take `COc1ccc(CN2CCC(COc3cccc(-c4nc(-c5ccc(C)nc5)no4)c3)CC2)cc1`: the 50% inhibitory concentration (IC50) against Cholinesterase and at Acetylcholinesterase [1] was more than 100 µM each time. The outcome in the series with HepG2-ARE-C8 [2] was inactive.
With `Cc1ccc(-c2noc(-c3cccc(OCC4CCN(C(=O)c5ccc(F)cc5)CC4)c3)n2)cn1`, the IC50 against Cholinesterase and against Acetylcholinesterase [1] was more than 100 µM throughout. In addition, in the series on HepG2-ARE-C8 [2], the result was inactive.
`Cc1ccc(-c2noc(-c3ccc(F)c(F)c3)n2)cn1`: the outcome with Mus musculus [3], with Mus musculus [4], in the series with Mus musculus [5], in the series with Mus musculus [6] and in the series on Mus musculus [7] was Active.
On to `Cc1ccc(-c2noc(-c3cccc(OCC4CCN(Cc5ccc(Cl)cc5)CC4)c3)n2)cn1`, for which the IC50 against Cholinesterase and at Acetylcholinesterase [1] was more than 100 µM each time. The outcome in the series on HepG2-ARE-C8 [2] was inactive.
For `Cc1ccc(-c2noc(-c3cccc(OCC4CCN(Cc5ccccc5F)CC4)c3)n2)cn1`, the 50% inhibitory concentration (IC50) was 15.5 µM against Cholinesterase, 0.29 µM at Acetylcholinesterase [8] and 0.1 µM on Acetylcholinesterase [1]. Further, the outcome in the series with HepG2-ARE-C8 [2] was inactive.
On to `Cc1ccc(-c2noc(-c3cccc(OCC4CCN(Cc5ccc(C(C)(C)C)cc5)CC4)c3)n2)cn1`, for which the IC50 against Cholinesterase and on Acetylcholinesterase [1] was more than 100 µM each time. The outcome in the series with HepG2-ARE-C8 [9] was Active. The result in the series with HepG2-ARE-C8 [2] was inactive.
With `Cc1ccc(-c2noc(-c3cccc(OCC4CCN(Cc5ccc(Br)o5)CC4)c3)n2)cn1`, the half-inhibitory concentration (IC50) at Cholinesterase was more than 100 µM; on Acetylcholinesterase [1] it was 3.18 µM. Moreover, the outcome with HepG2-ARE-C8 [2] was inactive.
On to `Cc1ccc(-c2noc(-c3cccc(OCC4CCN(Cc5ccc(C(F)(F)F)cc5)CC4)c3)n2)cn1`, for which the IC50 against Cholinesterase and against Acetylcholinesterase [1] was more than 100 µM throughout. In the series on HepG2-ARE-C8 [9], the result was Active. Besides, the result with HepG2-ARE-C8 [2] was inactive.
For `Cc1ccc(-c2noc(-c3cccc(OCC4CCN(Cc5ccc(C#N)cc5)CC4)c3)n2)cn1`, the half-maximal inhibitory concentration (IC50) against Cholinesterase is more than 100 µM; against Acetylcholinesterase [1], 71.4 µM. The outcome in the series on HepG2-ARE-C8 [2] was inactive.
The corresponding values for `Cc1ccc(CN2CCC(COc3cccc(-c4nc(-c5ccc(C)nc5)no4)c3)CC2)cc1` are 6.34 µM, more than 100 µM and “inactive”.
With `Cc1ccc(-c2noc(-c3cccc(OCC4CCCN(C(=O)c5ccccc5)C4)c3)n2)cn1` (configuration not stated), the concentration for half-maximal inhibition (IC50) turned out to be 13.8 µM on Cholinesterase and 15.9 µM against Acetylcholinesterase [1]. In addition, in the series on HepG2-ARE-C8 [9], the result was Active. Also, in the series with HepG2-ARE-C8 [2], the outcome was inactive.
In the case of `Cc1ccc(-c2noc(-c3cccc(OCC4CCN(Cc5ccncc5)CC4)c3)n2)cn1`, the IC50 against Cholinesterase is more than 100 µM; against Acetylcholinesterase [1], 16.8 µM. Further, the result in the series with HepG2-ARE-C8 [2] was inactive.
On to `Cc1ccc(-c2noc(-c3cccc(OCC4CCN(Cc5cccnc5)CC4)c3)n2)cn1`, for which the IC50 against Cholinesterase is 3.93 µM; on Acetylcholinesterase [1], 1.28 µM. In addition, the outcome in the series with HepG2-ARE-C8 [2] was inactive.
Taken in the same sequence, the figures for `Cc1ccc(-c2noc(-c3cccc(OCC4CCN(Cc5ccc(F)c(F)c5)CC4)c3)n2)cn1` were 1.66 µM, 13.9 µM and “inactive”.
Taken in the same sequence, the figures for `Cc1ccc(-c2noc(-c3cccc(OCC4CCCN(Cc5ccc(F)cc5)C4)c3)n2)cn1` (configuration not stated) were 4.28 µM, more than 100 µM and “inactive”.
As for `Cc1ccc(-c2noc(-c3cccc(OCC4CCN(Cc5ccc(F)cc5)CC4)c3)n2)cn1`, the IC50 on Cholinesterase was found to be 1.36 µM; at Acetylcholinesterase [8], 2.99 µM; at Acetylcholinesterase [1], 0.56 µM. The result in the series on HepG2-ARE-C8 [2] was inactive.
Taken in the same sequence, the figures for `Cc1ccc(-c2noc(-c3cccc(OCC4CCN(Cc5ccccc5)CC4)c3)n2)cn1` were 5.05 µM, 0.74 µM, 0.29 µM and “inactive”.
Regarding `Cc1ccc(-c2noc(-c3cccc(OCC4CCN(Cc5ccc(C)c(C)c5)CC4)c3)n2)cn1`, the concentration for half-maximal inhibition (IC50) against Cholinesterase is more than 100 µM; against Acetylcholinesterase [1] it was 5.64 µM. For the same molecule, in the series with HepG2-ARE-C8 [2], the result was inactive.
`Cc1ccc(CN2CCCC(COc3cccc(-c4nc(-c5ccc(C)nc5)no4)c3)C2)cc1` (configuration not stated): the 50% inhibitory concentration (IC50) against Cholinesterase was more than 100 µM; at Acetylcholinesterase [1], 5.39 µM. Also, the result with HepG2-ARE-C8 [2] was inactive.
Turning to `Cc1ccc(-c2noc(-c3cccc(OCC4CCN(Cc5ccccc5Cl)CC4)c3)n2)cn1`, the half-inhibitory concentration (IC50) on Cholinesterase is more than 100 µM; against Acetylcholinesterase [8], 0.57 µM; at Acetylcholinesterase [1], 0.55 µM. For the same molecule, the outcome in the series with HepG2-ARE-C8 [2] was inactive.
Consider `Cc1ccc(-c2noc(-c3cccc(OCC4CCCN(Cc5ccccc5F)C4)c3)n2)cn1` (configuration not stated), for which the IC50 on Cholinesterase amounted to 17.6 µM; at Acetylcholinesterase [1], 8.14 µM. In addition, the outcome in the series with HepG2-ARE-C8 [2] was inactive.
The corresponding values for `Cc1ccc(-c2noc(-c3cccc(OCC4CCN(Cc5ccc(Br)cc5)CC4)c3)n2)cn1` are more than 100 µM, more than 100 µM and “inactive”.

B1: Acetylcholinesterase (Homo sapiens), P22303 (protein)
chain: MRPPQCLLHTPSLASPLLLLLLWLLGGGVGAEGREDAELLVTVRGGRLRGIRLKTPGGPVSAFLGIPFAEPPMGPRRFLPPEPKQPWSGVVDATTFQSVCYQYVDTLYPGFEGTEMWNPNRELSEDCLYLNVWTPYPRPTSPTPVLVWIYGGGFYSGASSLDVYDGRFLVQAERTVLVSMNYRVGAFGFLALPGSREAPGNVGLLDQRLALQWVQENVAAFGGDPTSVTLFGESAGAASVGMHLLSPPSRGLFHRAVLQSGAPNGPWATVGMGEARRRATQLAHLVGCPPGGTGGNDTELVACLRTRPAQVLVNHEWHVLPQESVFRFSFVPVVDGDFLSDTPEALINAGDFHGLQVLVGVVKDEGSYFLVYGAPGFSKDNESLISRAEFLAGVRVGVPQVSDLAAEAVVLHYTDWLHPEDPARLREALSDVVGDHNVVCPVAQLAGRLAAQGARVYAYVFEHRASTLSWPLWMGVPHGYEIEFIFGIPLDPSRNYTAEEKIFAQRLMRYWANFARTGDPNEPRDPKAPQWPPYTAGAQQYVSLDLRPLEVRRGLRAQACAFWNRFLPKLLSATDTLDEAERQWKAEFHRWSSYMVHWKNQFDHYSKQDRCSDL
B1: the Km in [10] was 0.233 µM.
